Data from patent US12642756B2, “Leave-on composition” (Firmenich SA, priority 2020, dated 2026).

Legend:
[1] = tested on: lipase enzyme (Enzyme Innovation Addclean LP L); experiment: Reaction rate measurement in solution in the presence of a hydrolase (GC/MS); assay type: biochemical
Experimental: The release kinetics of 3,7-dimethyl-2,6-octadien-1-yl hexadecanoate (comparative compound) and (2E,6Z)-nona-2,6-dien-1-yl hexadecanoate (invention's compound) in the presence of a hydrolase were compared.
In order to compare the reaction rate of the esters, the amount of 3,7-dimethyl-2,6-octadien-1-yl hexadecanoate and (2E,6Z)-nona-2,6-dien-1-yl hexadecanoate and the amount of ethyl hexadecanoate over time were measured by GC/MS. The ethyl hexadecanoate was formed by the reaction between the hexadecanoic acid released and the ethanol.
Enzyme Solution Preparation: The lipase enzyme source used was Enzyme Innovation Addclean LP L at an activity of 20000 Lipase Units/g. A stock solution of 100 LU/ml was prepared and diluted in serial dilution to working concentrations as follows:
The solutions comprising 3,7-dimethyl-2,6-octadien-1-yl hexadecanoate or (2E,6Z)-nona-2,6-dien-1-yl hexadecanoate (also called palmitate ester solutions) were prepared by dissolving in ethanol to 5% by weight. These were subsequently diluted to working conditions of the experiment.
In a 2 ml Agilent GC vial (Agilent 5183-2068), 50 ul of 100 LU/ml solution was added with a micropipette. 100 ul deionized water was added to ensure continued hydrolysis. Samples to were prepared for each time condition, replicate, and palmitate ester solutions of interest because the reaction will be stopped and only measured once at 0 hours, 0.5 hours and 1 hour. […]
The palmitate esters were prepared by dissolving in ethanol to 5% by weight (stock). Palmitate ester solution was further diluted to 0.2% and 50 ul added to all sample vials above and recorded as time zero. […] Samples were analyzed by GC/MS direct injection methodology as follows.
GC-MS analyses were performed on an Agilent Gas Chromatograph system 7890B coupled to an Agilent Mass Selective Detector 5977B and equipped with a Gerstel MPS autosampler or equivalent. […] External calibration curves of (2E,6Z)-nona-2,6-dien-1-yl hexadecanoate and 3,7-dimethyl-2,6-octadien-1-yl hexadecanoate were prepared at 10-500 ppm was prepared and sample signal quantified in ppm.

[2] = Paneling of released fragrance alcohols on glass slides (sensory panel)
Experimental: Evaporation kinetics using 76 mm×51 mm glass slides was carried out. Prazitherm precision hotplate was pre-heated to 32 degrees Celsius for 30 minutes. Three glass slides were placed on the precision hotplate. Each glass slide is labeled with a unique code so that its identity is unknown to the panelists. Using a Gilson Microman M25 positive displacement pipette, […] of 0.1 LU lipase solution was dosed directly to the center of one of the glass slides. Then 20 μl of 1% (2E,6Z)-nona-2,6-dien-1-yl hexadecanoate was dosed very slowly to the lipase droplet. Once all the sample solution was applied onto the glass slide, the applied glass slide was evaporated on the precision hotplate for 4 hours at 32 degrees Celsius. Sample preparation for 1% (Z)-3-hexen-1-yl hexadecanoate solution and 1% 3,7-dimethyl-2,6-octadien-1-yl hexadecanoate solution were done the same way. Sample preparations for all three solutions were repeated for duplicates to replace each glass slide twice during the sensory panel period—the limit for a glass slide sample set (with 3 different glass slide samples) was 10 evaluations. At the 4-hour time interval, a spray bottle filled with deionized water was primed and then water was sprayed directly onto each glass slide once. One spray was enough to cover the glass slide. All glass slides were allowed to sit for 10 minutes before the sensory panel so the water was absorbed by the evaporated mixtures to represent humidity on skin. For evaluation, the panelist picks up the treated glass slides, smells the center and rates the intensity of each slide on an evaluation sheet.
In one test, the panelists rated odor intensity on a scale of 1 to 7 for each glass slide evaluated under release by the hydrolase at time 4 hours. The second approach was the so-called forced choice where panelists were forced to select the most intense out of the three […] after release with the Hydrolase at 4 hours at 0.1 LU/ml.

[3] = tested on: Hydrolase (Lipase solution 0.100 LU/ml); experiment: Fragrance evolution on Tzero lids (dynamic headspace) in a personal care base; assay type: biochemical; conditions: day cream base O/W emulsion with 1 wt% compound, absence of hydrolase (water control), 32C, 4 hours
Experimental: To confirm fragrance release in presence of personal care base, personal care base was formulated with invention's compound and analyzed by an in-vitro assay measuring the functional perfume ingredient in the gaseous phase.
Testing was done in the presence of physiologically relevant concentration of Hydrolase (0.1 LU/ml) as follows. […] 901671.901] crucibles. 2.5 ul of personal care base with (2E,6Z)-nona-2,6-dien-1-yl hexadecanoate was added to the same crucibles and placed on preheated precision hotplate to 32C. Additional aliquots of 2.5 ul water were added to the crucibles at 1 h and 4 h to simulate humidity on skin and facilitate hydrolysis. The crucibles were transferred to 20 ml headspace vials after 4 hours at 32C.
Analysis performed by Dynamic Headspace using Tenax TA trap outlined as follows. GC-MS-DHS analyses were performed on an Agilent Gas Chromatograph system 7890B coupled to an Agilent Mass Selective Detector 5977B and equipped with a Gerstel MPS autosampler. Additionally equipment of automated Gerstel Dynamic Headspace System, ATEX air sampling tube gripper for 20 mL headspace vials with a metal screw cap (preassembled with 1.3 mm PTFE septa) and Gerstel CIS 4C cryostatic cooling device CCD2 (Inlet 2) mounted with Gerstel TDU2 thermal desorption unit. […]

[4] = tested on: Hydrolase (Lipase solution 0.100 LU/ml); experiment: Fragrance evolution on Tzero lids (dynamic headspace), palmitate esters; assay type: biochemical
Experimental: To further investigate the release kinetics of palmitate esters in the presence of hydrolases, an in-vitro assay measuring the functional perfume ingredient in the gaseous phase was devised.
Three palmitate esters releasing respectively (2E,6Z)-nona-2,6-dien-1-ol (corresponding to invention's compound) and 3,7-dimethyl-2,6-octadien-1-ol (corresponding to comparative compound) were tested in the presence of physiologically relevant concentration of Hydrolase (0.1 LU/ml) as follows. 2.5 ul Lipase solution (0.100 LU/ml) was added to Tzero Lids TA [Part no. 901671.901] crucibles. 2.5 ul of 0%, […], 0.1%, […] and 1% solution in ethanol of palmitate esters were added to the same crucibles and placed on preheated precision hotplate to 32C. Additional aliquots of 2.5 ul water were added to the crucibles at 1 h and 4 h to simulate humidity on skin and facilitate hydrolysis. The crucibles were transferred to 20 ml headspace vials after […] at 32C.
Analysis performed by Dynamic Headspace using Tenax TA trap outlined as follows. GC-MS-DHS analyses were performed on an Agilent Gas Chromatograph system 7890B coupled to an Agilent Mass Selective Detector 5977B and equipped with a Gerstel MPS autosampler. […]

[5] = glass slide, 0.1 LU/ml lipase, 4 hours

Structure (SMILES)	total rate of lipase-catalyzed reaction ([1]; compared with 3,7-dimethyl-2,6-octadien-1-yl hexadecanoate)	concentration of the ester in solution in function of time ([1]; lipase 100 LU/ml solution, 32C, 0, 0.5 and 1 hour, GC/MS, compared with 3,7-dimethyl-2,6-octadien-1-yl hexadecanoate (FIG. 1))	release of the alcohol, confirmed by increase of ethyl hexadecanoate ([1]; lipase, ethanol present, 32C, up to 1 hour, compared with 3,7-dimethyl-2,6-octadien-1-ol (FIG. 2))	odor intensity rated by panelists on a scale of 1 to 7 ([2]; 1% solution on glass slide, 0.1 LU/ml lipase, 4 hours at 32 degrees Celsius, versus the two other hexadecanoates (FIG. 6))	perception / impression by the panelists [2, 5]	forced choice: panelists who selected the sample as the most intense ([2]; glass slide, Hydrolase 0.1 LU/ml, 4 hours, three esters compared (FIG. 7))	release of (2E,6Z)-nona-2,6-dien-1-ol in headspace from personal care base [3]	rate of release of fragrance material into headspace ([4]; Hydrolase 0.1 LU/ml, 32C, 4 hours, on Tzero lids (FIG. 3))	release rate compared with 3,7-dimethyl-2,6-octadien-1-yl hexadecanoate ([4]; stated in Example 6, test not named)
CC/C=C\CC/C=C/COC(=O)CCCCCCCCCCCCCCC [(2E,6Z)-nona-2,6-dien-1-yl hexadecanoate]	higher total rate of lipase-catalyzed reaction	decreased more rapid than the concentration of 3,7-dimethyl-2,6-octadien-1-yl hexadecanoate	faster release of (2E,6Z)-nona-2,6-dien-1-ol compared to 3,7-dimethyl-2,6-octadien-1-ol	significantly more intense	the most intense impression	20/21	no release is observed	higher rate than 3,7-dimethyl-2,6-octadien-1-yl hexadecanoate	
CC/C=C\CCOC(=O)CCCCCCCCCCCCCCC [(Z)-3-hexen-1-yl hexadecanoate, reference compound]					not well perceived by the panelists				release faster than 3,7-dimethyl-2,6-octadien-1-yl hexadecanoate
